Experimental data taken from patent US12655107B2 (The United States of America, as represented by the …, priority 2018, dated 2026).

Legend:
[1] = target: T1, Top1 (Homo sapiens, UniProt P11387); assay: Top1-mediated DNA cleavage assay; format: biochemical; settings: graded relative to CPT at 1 μM, Table 7
T1 sequence (P11387 1-765): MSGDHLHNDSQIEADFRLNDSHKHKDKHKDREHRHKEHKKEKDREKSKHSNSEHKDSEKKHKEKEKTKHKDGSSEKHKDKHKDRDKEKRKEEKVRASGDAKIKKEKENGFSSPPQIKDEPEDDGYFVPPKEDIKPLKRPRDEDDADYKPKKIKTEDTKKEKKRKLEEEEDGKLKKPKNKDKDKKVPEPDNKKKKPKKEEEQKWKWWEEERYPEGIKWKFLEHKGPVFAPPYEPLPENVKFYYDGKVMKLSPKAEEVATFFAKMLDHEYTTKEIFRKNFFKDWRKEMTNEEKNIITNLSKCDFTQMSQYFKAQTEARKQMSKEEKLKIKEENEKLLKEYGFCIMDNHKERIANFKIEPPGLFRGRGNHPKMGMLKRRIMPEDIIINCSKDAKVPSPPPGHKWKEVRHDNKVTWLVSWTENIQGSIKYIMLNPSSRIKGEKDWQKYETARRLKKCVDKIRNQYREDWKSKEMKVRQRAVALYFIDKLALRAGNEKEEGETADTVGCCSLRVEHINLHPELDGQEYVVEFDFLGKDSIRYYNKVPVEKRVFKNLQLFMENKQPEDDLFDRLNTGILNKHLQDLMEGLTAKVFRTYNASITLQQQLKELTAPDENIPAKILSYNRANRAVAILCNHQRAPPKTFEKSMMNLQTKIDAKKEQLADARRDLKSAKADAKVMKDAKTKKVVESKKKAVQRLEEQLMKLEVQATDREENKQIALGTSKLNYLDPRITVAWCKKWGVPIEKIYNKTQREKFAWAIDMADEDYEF

[2] = tested on: A549; assay: MTT cytotoxicity assay, A549; format: cell-based, human; settings: 72 h, Table 7, read-out: GI50 ± SC (μM) A-49
Method: (§1) Cytotoxicity Assays. […] The cells were incubated with the tested compounds for 72 hours in a five-dose assay ranging from 0.01 to 100 μM concentration. After drug treatments, MTT solution was added to test the percentage growth of tumor cells.
(§2) The compounds were incubated with the cells for 72 hours in a five-dose assay ranging from 0.01 to 100 μM concentration. At the end of the incubation, the MTT solution was added to test the percentage growth of tumor cells.
(§3) For the drug treatment experiments, the cancer cells were treated with the compounds (predissolved in DMSO) at a five-dose assay ranging from 0.01 to 100 μM concentration. […] After 4 h incubation, the formazan crystal formed in the well was dissolved with […] of DMSO for optical density reading at 570 nm. The GI50 value was calculated by nonlinear regression analysis (GraphPad Prism).

[3] = tested on: HCT116; assay: MTT cytotoxicity assay, HCT116; format: cell-based, human; settings: 72 h, Table 7, read-out: GI50 ± SC (μM) HCT116
Method: as §1, §2, §3

[4] = tested on: DU145; assay: MTT cytotoxicity assay, DU145; format: cell-based, human; settings: 72 h, Table 7, read-out: GI50 ± SC (μM) DU145
Method: as §1, §2, §3

[5] = tested on: MCF-7; assay: MTT cytotoxicity assay, MCF-7; format: cell-based, human; settings: 72 h, Table 7, read-out: GI50 ± SC (μM) MCF-7
Method: as §2, §3

COc1cc2c(=O)n(CCN(C)S(=O)(=O)N3CCCC3)c3c4cc5c(cc4ccc3c2cc1OC)OCO5 [Compound 54, N-(2-(2,3-dimethoxy-13-oxo-[1,3]dioxolo[4,5′:4,5]benzo[1,2-c]phenanthridin-12(13H)-yl)ethyl)-N-methylpyrrolidine-1-sulfonamide]
TOP1 inhibition [1]: + (+, between 20% and 50% activity) | GI50 [2]: 5.3 ± 0.41 µM | GI50 [3]: 2.5 ± 0.18 µM | GI50 [4]: 3.1 ± 0.3 µM | GI50 [5]: 3.8 ± 0.25 µM

COc1cc2c(=O)n(CCNS(=O)(=O)N(C)C)c3c4cc5c(cc4ccc3c2cc1OC)OCO5 [Compound 59, N-(2-(2,3-dimethoxy-13-oxo-[1,3]dioxolo[4′,5′:4,5]benzo[1,2-c]phenanthridin-12(13H)-yl)ethyl)dimethylamine-1-sulfonamide]
TOP1 inhibition [1]: + (+, between 20% and 50% activity) | GI50 [2]: 35 ± 0.14 µM | GI50 [3]: 30 ± 2.1 µM | GI50 [4]: 45 ± 1.2 µM | GI50 [5]: 21 ± 1 µM

COc1cc2c(=O)n(CCN(C)S(=O)(=O)C3CC3)c3c4cc5c(cc4ccc3c2cc1OC)OCO5 [Compound 52, N-(2-(2,3-dimethoxy-13-oxo-[1,3]dioxolo[4′,5′:4,5]benzo[1,2-c]phenanthridin-12(13H)-yl)ethyl)-N-methylcyclopropanesulfonanide]
TOP1 inhibition [1]: + (+, between 20% and 50% activity) | GI50 [2]: 15 ± 1.5 µM | GI50 [3]: 7.9 ± 0.15 µM | GI50 [4]: 10 ± 1.2 µM | GI50 [5]: 5.8 ± 0.89 µM

COc1cc2c(=O)n(CCN(C)S(=O)(=O)C(F)(F)F)c3c4cc5c(cc4ccc3c2cc1OC)OCO5 [Compound 51, N-(2-(2,3-dimethoxy-13-oxo-[1,3]dioxolo[4′5′:4,5]benzo[1,2-c]phenanthridin-12(13H)-yl)ethyl)-1,1,1-trifluoro-N-methylmethanesulfonamide]
GI50 [2]: 42 ± 0.98 µM | GI50 [3]: 86 ± 2.5 µM | GI50 [4]: 65 ± 1.2 µM | GI50 [5]: 35 ± 1.7 µM

Dimethyl(2-(2,3-dimethoxy-13-oxo-[1,3]dioxolo[4′,5′:4,5]benzo[1,2-c]phe-nanthridin-12(13H)-yl)ethyl)(methyl)phosphoramidate [Compound 56]
TOP1 inhibition [1]: ++ (++, between 50% and 75% activity) | GI50 [2]: 14 ± 1.4 µM | GI50 [3]: 9.2 ± 0.14 µM | GI50 [4]: 5.3 ± 0.21 µM | GI50 [5]: 10 ± 0.54 µM

COc1cc2c(=O)n(CCNS(=O)(=O)N3CCCC3)c3c4cc5c(cc4ccc3c2cc1OC)OCO5 [Compound 60, N-(2-(2,3-dimethoxy-13-oxo-[1,3]dioxolo[4′,5′:4,5]benzo[1,2-c]phenanthridin-12(13H)-yl)ethyl)pyrrolidine-1-sulfonamide]
GI50 [2]: 61 ± 0.15 µM | GI50 [3]: 34 ± 1.1 µM | GI50 [4]: 79 ± 1 µM | GI50 [5]: 38 ± 0.78 µM

COc1cc2c(=O)n(CCNS(=O)(=O)N3CCOCC3)c3c4cc5c(cc4ccc3c2cc1OC)OCO5 [Compound 61, N-(2-(2,3-dimethoxy-13-oxo-[1,3]dioxolo[4′,5′:4,5]benzo[1,2-c]phenanthridin-12(13H)-yl)ethyl)morpholine-4-sulfonamide]
TOP1 inhibition [1]: ++ (++, between 50% and 75% activity) | GI50 [2]: 2.9 ± 0.027 µM | GI50 [3]: 1.1 ± 0.047 µM | GI50 [4]: 1.6 ± 0.021 µM | GI50 [5]: 0.89 ± 0.12 µM

COc1cc2c(=O)n(CCNC(=O)C3CC3)c3c4cc5c(cc4ccc3c2cc1OC)OCO5 [Compound 63, N-(2-(2,3-dimethoxy-13-oxo-[1,3]dioxolo[4,5′:4,5]benzo[1,2-c]phenanthridin-12(13H)-yl)ethyl)cyclopropanecarboxamide]
TOP1 inhibition [1]: + (+, between 20% and 50% activity) | GI50 [2]: 1.3 ± 0.006 µM | GI50 [3]: 5.3 ± 0.11 µM | GI50 [4]: 7.8 ± 0.52 µM | GI50 [5]: 2.2 ± 0.27 µM

COc1cc2c(=O)n(CCNP(=O)(OC)OC)c3c4cc5c(cc4ccc3c2cc1OC)OCO5 [Compound 62, Dimethyl(2-(2,3-dimethoxy-13-oxo-[1,3]dioxolo[4′,5′:4,5]benzo[1,2-c]phenanthridin-12(13H)-yl)ethyl)phosphoramidate]
GI50 [2]: 41 ± 2 µM | GI50 [3]: 51 ± 1.5 µM | GI50 [4]: 39 ± 2.2 µM | GI50 [5]: 48 ± 1.9 µM
